According to patent publication US20140357512A1, “HISTONE DEACETYLASE (HDAC) BIOMARKERS IN MULTIPLE MYELOMA” (priority 2013, published 2014):

Tested on: human myeloma cell line MM.1S
Assay: SILAC acetylated-lysine peptide profiling, HDAC inhibitor vs DMSO (light/heavy ratio)
Type: cell-based
Text: An embodiment of the invention comprises utilizing the SILAC method in order to quantitate changes in protein expression between two or more populations of cells. The SILAC method is a technique based on mass spectrometry that detects differences in protein abundance among samples using non-radioactive isotopic labeling. The SILAC method is known in the art, and described in detail in Ong et al., “Stable Isotope Labeling by Amino Acids in Cell Culture, SILAC, as a Simple and Accurate Approach to Expression Proteomics”, Molecular & Cellular Proteomics, vol. 1, pp. 376-386 (2002), which is incorporated herein by reference in its entirety.
Briefly, the SILAC method involves growing two populations of cells in cell culture. The first population of cells is grown in growth media containing normal amino acids (“normal media”). The second population of cells is grown in media lacking a standard essential amino acid (such as lysine), but is then supplemented with a non-radioactive, isotopically labeled form of that essential amino acid (such as lysine labeled with ^13C atoms, rather than normal ^12C atoms), which is called “heavy media”. When the two populations of cells are each growing in the medium, they incorporate the amino acids into all of their proteins. The growth of cells maintained in the heavy media is no different from that in normal media. All peptides containing the heavy amino acids are heavier than their normal counterparts. The cells from each of the two populations of cells are lysed. The lysates from each of the two cell populations are then combined. The combined cell lysates are then analyzed by mass spectrometry. Pairs of chemically identical peptides of different stable isotope composition can be differentiated in a mass spectrometer due to their difference in mass. The ratio of peak intensities in the mass spectrum for such peptide pairs reflects the abundance ratio for the two proteins.
This example describes SILAC studies that were performed to compare the effects of three different HDAC inhibitors (Compound A, Compound B, and tubastatin A) to a control on a human multiple myeloma cell line. The HDAC inhibitors were also compared amongst themselves to determine differences in their effects.
A human myeloma cell line MM.1S was grown using either ^12C (light) or ^13C (heavy) lysine containing culture medium. The “heavy” cells were treated with DMSO as the control, and the “light” cells were treated with a single HDAC inhibitor at 37° C. for 6 hours. The heavy and light cells were lysed, and the lysates were mixed in 1:1 ratio and digested with the protease trypsin. The acetylated lysine containing peptides (due to the action of the HDAC inhibitor) in the digested peptide pool were captured by a non-specific anti-acetylated lysine antibody cocktail (the antibodies identify both light and heavy acetylated peptides), and subjected to mass spectrometry analysis in order to identify thousands of individual peptides.
Thousands of peptides were identified in pairs (^12C and ^13C) due to their known mass differences. The amino acid sequence and quantitative ratio (Light/Heavy) of a given peptide in two differentially treated cell lysates were then determined and annotated with their possible protein (gene) sources.
As stated above, three HDAC inhibitors (Compound A, Compound B, and Tubastatin A) were used. Thus, the SILAC method was performed three times, with a different HDAC inhibitor compared to a control each time. Accordingly, there are three pairs of quantitative data in the table below, i.e., Compound A:DMSO, Compound B:DMSO, and Tubastatin A:DMSO. A cut-off of 1.30 fold of change (increase or decrease) was then used to determine “changed” or “+” in the table, and any peptides with a fold of change less than 1.3 fold were determined to be “unchanged” or “0” in the table. Those peptides that were not identified were marked as “NA” in the table. […]

Question: Which “L/H ratio of acetylated peptide DWVLNEFK(ac)HGK (SEQ ID NO: 33)” value (DDX5 [388], log 2 scale, drug vs DMSO) does the source give for O=C(CCCCCCNC(=O)c1cnc(N(c2ccccc2)c2ccccc2)nc1)NO [Compound A, 2-(diphenylamino)-N-(7-(hydroxyamino)-7-oxoheptyl)pyrimidine-5-carboxamide] here?
Answer: 0.00

Question: And the “L/H ratio of acetylated peptide FEK(ac)[…] (SEQ ID NO: 32)” value (DDX17 [132], log 2 scale, drug vs DMSO)?
Answer: 0.00

Question: What about the “L/H ratio of acetylated peptide ELNK(ac)ILEGR (SEQ ID NO: 2)” value (DLAT [466], log 2 scale, drug vs DMSO) of the same compound?
Answer: 0.00

Question: And the “light to heavy ratio (L/H ratio) of acetylated peptide SQFLK(ac)YIEK (SEQ ID NO: 524)” value (DNA replication licensing factor MCM2 [534], gene MCM2, inhibitor:DMSO)?
Answer: −0.46 log 2

Question: And the “light to heavy ratio (L/H ratio) of acetylated peptide TFEK(ac)SMMNLQTK (SEQ ID NO: 354)” value (DNA topoisomerase 1 [642], TOP1, drug:DMSO)?
Answer: 0.00 log 2

Question: What about the “L/H ratio of acetylated peptide VVK(ac)HPIFER (SEQ ID NO: 35)” value (DNAJB11 [247], log 2 scale, drug vs DMSO) of the same compound?
Answer: 0.00

Question: What about the “L/H ratio of acetylated peptide” value (DVTLQK(ac)QCVPFR (SEQ ID NO: 486), 60S ribosomal protein L17 [55], RPL17) of the same compound?
Answer: 0.71 log 2

Question: What about the “light to heavy ratio (L/H ratio) of acetylated peptide LNLDK(ac)MMEQK (SEQ ID NO: 603)” value (Dihydrolipoyl dehydrogenase mitochondrial [122], gene DLD, inhibitor:DMSO) of the same compound?
Answer: 0.46 log 2

Question: What about the “light to heavy ratio (L/H ratio) of acetylated peptide DTYIENEK(ac)LISGK (SEQ ID NO: 352)” value (Dolichyl-diphosphooligosaccharide--protein glycosyltransferase subunit 1 precursor [626], RPN1, drug:DMSO) of the same compound?
Answer: 0.00 log 2

Question: What about the “light to heavy ratio (L/H ratio) of acetylated peptide YNIEK(ac)DIAAHIK (SEQ ID NO: 553)” value (Dynein light chain 1 cytoplasmic [36], gene DYNLL1, inhibitor:DMSO) of the same compound?
Answer: 0.40 log 2

Question: What about the “light to heavy ratio (L/H ratio) of acetylated peptide YNIEK(ac)DIAAYIK (SEQ ID NO: 331)” value (Dynein light chain 2 cytoplasmic [36], DYNLL2, drug:DMSO) of the same compound?
Answer: 0.00 log 2

Question: What about the “L/H ratio of acetylated peptide” value (EHLLK(ac)YEYQPFAGK (SEQ ID NO: 482), Isoform 1 of WD repeat-containing protein 1 [95], WDR1) of the same compound?
Answer: 0.47 log 2

Question: What about the “L/H ratio of acetylated peptide TSK(ac)NK(ac)SSLSR (SEQ ID NO: 14)” value (EP300 [1558:1560], log 2 scale, drug vs DMSO) of the same compound?
Answer: 1.00

Question: What about the “light to heavy ratio (L/H ratio) of acetylated peptide YLAEK(ac)YEWDVAEAR (SEQ ID NO: 332)” value (Elongation factor 2 [638], EEF2, drug:DMSO) of the same compound?
Answer: 0.00 log 2

Question: And the “light to heavy ratio (L/H ratio) of acetylated peptide TFK(ac)GVVDVVMK (SEQ ID NO: 550)” value (Elongation factor G 2 mitochondrial precursor [265], gene GFM2, inhibitor:DMSO)?
Answer: 0.39 log 2

Question: And the “light to heavy ratio (L/H ratio) of acetylated peptide KSDYIK(ac)LYVR (SEQ ID NO: 315)” value (Endoplasmin [410], HSP90B1, drug:DMSO)?
Answer: 1.00 log 2

Question: And the “light to heavy ratio (L/H ratio) of acetylated peptide EK(ac)[…] (SEQ ID NO: 314)” value (Endoplasmin[ 142], HSP90B1, drug:DMSO)?
Answer: 1.00 log 2

Question: And the “light to heavy ratio (L/H ratio) of acetylated peptide EVEEDEYK(ac)AFYK (SEQ ID NO: 261)” value (Endoplasmin[ 356], HSP90B1, drug:DMSO)?
Answer: 0.41 log 2

Question: And the “light to heavy ratio (L/H ratio) of acetylated peptide K(ac)EELTLEGIR (SEQ ID NO: 510)” value (Eukaryotic initiation factor 4A-I [238], gene EIF4A1, inhibitor:DMSO)?
Answer: −0.60 log 2

Question: And the “light to heavy ratio (L/H ratio) of acetylated peptide LMCK(ac)PIFSK (SEQ ID NO: 335)” value (Eukaryotic translation initiation factor 2 subunit 3 [312], EIF2S3, drug:DMSO)?
Answer: 0.00 log 2

Question: What about the “light to heavy ratio (L/H ratio) of acetylated peptide SHLAK(ac)EGLYQYK (SEQ ID NO: 533)” value (Eukaryotic translation initiation factor 3 subunit A [68], gene EIF3A, inhibitor:DMSO) of the same compound?
Answer: −0.41 log 2

Question: And the “L/H ratio of acetylated peptide” value (FGIAAK(ac)[…] (SEQ ID NO: 479), Isoform 2 of Voltage-dependent anion-selective channel protein 2 [224], VDAC2)?
Answer: −0.40 log 2

Question: And the “light to heavy ratio (L/H ratio) of acetylated peptide, log 2 scale” value (FPHSAHQK(ac)YVR (SEQ ID NO: 253), Ribosomal protein L14 variant [71], RPL14)?
Answer: −0.39

Question: And the “L/H ratio of acetylated peptide” value (FVATGHGK(ac)YEK (SEQ ID NO: 487), Lymphocyte-specific protein 1 [327], LOC100133284, LSP1)?
Answer: 0.75 log 2

Question: What about the “light to heavy ratio (L/H ratio) of acetylated peptide AVDLIQK(ac)HK (SEQ ID NO: 546)” value (Flap endonuclease 1 [252], gene FEN1, inhibitor:DMSO) of the same compound?
Answer: 0.39 log 2

Question: And the “light to heavy ratio (L/H ratio), log 2 scale, acetylated peptide GGVVGIK(ac)VDK (SEQ ID NO: 774)” value (Fructose-bisphosphate aldolase A [108], gene ALDOA, drug:DMSO)?
Answer: 1.00

Question: What about the “L/H ratio of acetylated peptide TCEESSFCK(ac)R (SEQ ID NO: 36)” value (GANAB [48], log 2 scale, drug vs DMSO) of the same compound?
Answer: 0.00

Question: What about the “L/H ratio of acetylated peptide ASGLAAGK(ac)GVIVAK (SEQ ID NO: 37)” value (GART [156], log 2 scale, drug vs DMSO) of the same compound?
Answer: 0.00

Question: And the “L/H ratio of acetylated peptide LVK(ac)VWNLANCK (SEQ ID NO: 39)” value (GNB2L1 [175], log 2 scale, drug vs DMSO)?
Answer: 0.00

Question: And the “L/H ratio of acetylated peptide IIVDELK(ac)QEVISTSSK (SEQ ID NO: 38)” value (GNB2L1 [271], log 2 scale, drug vs DMSO)?
Answer: 0.00

Question: What about the “L/H ratio of acetylated peptide” value (GSK(ac)K(ac)AVTK (SEQ ID NO: 490), Histone H2B type 2-E [16:17], HIST2H2BE) of the same compound?
Answer: 1.00 log 2

Question: What about the “L/H ratio of acetylated peptide (ac)AHYNFK(ac)K (SEQ ID NO: 40)” value (GTPBP4 [7], log 2 scale, drug vs DMSO) of the same compound?
Answer: 0.00

Question: And the “L/H ratio of acetylated peptide” value (GVHPK(ac)FPEGGK (SEQ ID NO: 483), NADH-cytochrome b5 reductase 1 [124], CYB5R1)?
Answer: 0.48 log 2

Question: And the “light to heavy ratio (L/H ratio) of acetylated peptide (ac)[…](ac)PGECLR (SEQ ID NO: 575)” value (Galectin-1 [13], gene LGALS1, inhibitor:DMSO)?
Answer: 0.42 log 2

Question: And the “light to heavy ratio (L/H ratio) of acetylated peptide ISGASEK(ac)[…] (SEQ ID NO: 543)” value (Glutamate dehydrogenase 1 mitochondrial [503], gene GLUD1, inhibitor:DMSO)?
Answer: 0.39 log 2

Question: And the “light to heavy ratio (L/H ratio) of acetylated peptide […](ac)YDNSLK (SEQ ID NO: 620)” value (Glyceraldehyde-3-phosphate dehydrogenase [139], gene GAPDH, inhibitor:DMSO)?
Answer: 0.48 log 2
